Measured values: ChEMBL document CHEMBL3885881, “DrugMatrix”
“And” between values parts separate entries of the source, which are not always exact repeats. Equal values may be shown once.

Species: Rattus norvegicus
Experiment: DrugMatrix - Regimen: Daily Repeat
Format: toxicity, organism-based, Sprague-Dawley
Design: regimen Daily Repeat, gender Male, age 6-8 weeks
Conditions: in vivo, ip, route intraperitoneal, vehicle 100 % SALINE; for ABSOLUTE BASOPHIL / ABSOLUTE EOSINOPHIL / ABSOLUTE LYMPHOCYTE / ABSOLUTE MONOCYTE / BASOPHIL / EOSINOPHIL / ERYTHROCYTE COUNT / HEMATOCRIT / HEMOGLOBIN / LEUKOCYTE COUNT / LYMPHOCYTE / MEAN CORPUSCULAR HEMOGLOBIN / MEAN CORPUSCULAR HEMOGLOBIN CONCENTRATION / MEAN CORPUSCULAR VOLUME / MONOCYTE / NEUTROPHIL / PLATELET COUNT: tissue Blood
[1] = 0 mg/kg, […], tissue Plasma, dose level Control, time 28 day
[2] = 0.5 mg/kg, 120 h, dose level High, time 5 day
[3] = 0.5 mg/kg, 120 h, tissue Plasma, dose level High, time 5 day
[4] = 0.5 mg/kg, […], dose level High, time 14 day
[5] = 0.5 mg/kg, […], dose level High, time 28 day
[6] = 0.5 mg/kg, […], tissue Plasma, dose level High, time 14 day

CISPLATIN
CHOLESTEROL [1]: 44.9 mg/dL | CREATININE [1]: 0.6 mg/dL | GLUCOSE [1]: 147.2 mg/dL | LACTATE DEHYDROGENASE [1]: 123.1 u/L | LIPASE [1]: 9.6 u/L | PHOSPHORUS [1]: 10.01 mg/dL | POTASSIUM [1]: 6.57 MEQ/L | SODIUM [1]: 149.5 MEQ/L | TOTAL BILIRUBIN [1]: 0.21 mg/dL | URIC ACID [1]: 1.26 mg/dL | ABSOLUTE BASOPHIL [2]: 26 cells/µL | ABSOLUTE EOSINOPHIL [2]: 92 cells/µL | ABSOLUTE LYMPHOCYTE [2]: 5270 cells/µL | ABSOLUTE MONOCYTE [2]: 150 cells/µL | BASOPHIL [2]: 0.36% and 0.28% | EOSINOPHIL [2]: 1.46% and 0.85% | ERYTHROCYTE COUNT [2]: 7.52 x10E6/uL and 7.82 x10E6/uL | HEMATOCRIT [2]: 46.92% and 52.02% | HEMOGLOBIN [2]: 16.7 G/DL | LEUKOCYTE COUNT [2]: 6.24 x10E3/uL and 6.92 x10E3/uL | LYMPHOCYTE [2]: 84.62% and 88.4% | MEAN CORPUSCULAR HEMOGLOBIN [2]: 20.1 pg and 21.33 pg | MEAN CORPUSCULAR HEMOGLOBIN CONCENTRATION [2]: 32.2 G/DL and 32.05 G/DL | MEAN CORPUSCULAR VOLUME [2]: 66.5 fL | MONOCYTE [2]: 2.36% and 1.6% | NEUTROPHIL [2]: 10.88% and 7.72% | PLATELET COUNT [2]: 1593.2 x10E3/uL and 1552.25 x10E3/uL | ALANINE AMINOTRANSFERASE [3]: 25 u/L and 19.25 u/L | ALBUMIN [3]: 3.66 G/DL and 4.4 G/DL | ALKALINE PHOSPHATASE [3]: 215.2 u/L and 294.25 u/L | ASPARTATE AMINOTRANSFERASE [3]: 75.2 u/L and 87.5 u/L | BLOOD UREA NITROGEN [3]: 13.8 mg/dL and 15 mg/dL | CARBON DIOXIDE [3]: 25.25 mmol/L | CHLORIDE [3]: 106.6 MEQ/L and 107.25 MEQ/L | CHOLESTEROL [3]: 54.4 mg/dL and 68 mg/dL | CREATININE [3]: 0.54 mg/dL and 0.5 mg/dL | GLUCOSE [3]: 136.8 mg/dL and 138.75 mg/dL | LIPASE [3]: 26.8 u/L and 10 u/L | POTASSIUM [3]: 5.54 MEQ/L and 5.67 MEQ/L | SODIUM [3]: 146.2 MEQ/L and 152.25 MEQ/L | TOTAL BILIRUBIN [3]: 0.18 mg/dL and 0.43 mg/dL | URIC ACID [3]: 1.34 mg/dL and 2.38 mg/dL | ABSOLUTE BASOPHIL [4]: 36 cells/µL | ABSOLUTE EOSINOPHIL [4]: 56 cells/µL | ABSOLUTE LYMPHOCYTE [4]: 7470 cells/µL | ABSOLUTE MONOCYTE [4]: 180 cells/µL | MEAN CORPUSCULAR HEMOGLOBIN [4]: 19.97 pg | ABSOLUTE BASOPHIL [5]: 87.8 cells/µL | ABSOLUTE EOSINOPHIL [5]: 85.6 cells/µL | ABSOLUTE LYMPHOCYTE [5]: 8670 cells/µL | ABSOLUTE MONOCYTE [5]: 180 cells/µL | BASOPHIL [5]: 0.8% | EOSINOPHIL [5]: 0.83% | ERYTHROCYTE COUNT [5]: 9.05 x10E6/uL | HEMATOCRIT [5]: 52.96% | HEMOGLOBIN [5]: 17.03 G/DL | LEUKOCYTE COUNT [5]: 10.42 x10E3/uL | LYMPHOCYTE [5]: 83.03% | MEAN CORPUSCULAR HEMOGLOBIN [5]: 18.84 pg | MEAN CORPUSCULAR HEMOGLOBIN CONCENTRATION [5]: 32.23 G/DL | MEAN CORPUSCULAR VOLUME [5]: 58.53 fL | MONOCYTE [5]: 1.62% | NEUTROPHIL [5]: 13.3% | PLATELET COUNT [5]: 1272.33 x10E3/uL | ALBUMIN [6]: 3.38 G/DL | CARBON DIOXIDE [6]: 22.25 mmol/L | CHLORIDE [6]: 111.6 MEQ/L | ALANINE AMINOTRANSFERASE (0.5 mg/kg, […], tissue Plasma, dose level High, time 28 day): 30.78 u/L
